# Tests used:
# Solubility in water = assay type: physicochemical; settings: except at low or high pH conditions
# Text: Zwitterionic character may be inherent to the compound, and may impart desirable properties such as poor systemic absorption and sustained local affect on the gut following oral administration.
# mu opioid receptors = mu opioid receptors (Homo sapiens, UniProt P35372); settings: opioid receptor binding assays; cited from earlier work
# [1] = tested on: patients undergoing partial colectomy or simple or radical hysterectomy surgical procedures; test: Phase II clinical study versus placebo in patients after abdominal surgery (post-surgical ileus); assay type: in vivo, humans
# Protocol: A 78 patient Phase II clinical study was conducted which compared two doses (2 mg and 12 mg) of the compound of formula (II) versus placebo in patients undergoing partial colectomy or simple or radical hysterectomy surgical procedures. The results of this study are set forth in the following Tables 1 to 4 and are depicted graphically in FIGS. 1 to 5.
# The time to first flatus was reduced by 15 hours; all other measures were reduced by 24 hours or more. […] In particular, none of the patients receiving the higher dose of the compound of formula (II) experienced post-surgical vomiting compared to 23% in the placebo control group (P<0.03). Twenty seven percent of the patients receiving the higher dose of compound (II) experienced clinically relevant post- surgical nausea compared to 63% of the placebo control group (P=0.003).
# Chain of mu opioid receptors (P35372 whole entry): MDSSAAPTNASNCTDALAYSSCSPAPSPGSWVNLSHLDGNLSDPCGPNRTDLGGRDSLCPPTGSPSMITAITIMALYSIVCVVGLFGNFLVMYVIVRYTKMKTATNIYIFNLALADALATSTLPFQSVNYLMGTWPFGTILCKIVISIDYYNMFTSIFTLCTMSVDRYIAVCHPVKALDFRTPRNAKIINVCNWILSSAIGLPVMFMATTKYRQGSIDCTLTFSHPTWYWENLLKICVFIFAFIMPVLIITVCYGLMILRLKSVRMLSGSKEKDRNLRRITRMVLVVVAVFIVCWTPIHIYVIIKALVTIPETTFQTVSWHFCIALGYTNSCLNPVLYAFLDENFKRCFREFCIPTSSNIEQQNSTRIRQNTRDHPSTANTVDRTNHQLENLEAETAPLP
structure (smiles),measurement,setting,value
"C[C@H]1CN(C[C@H](Cc2ccccc2)C(=O)NCC(=O)O)CCC1(C)c1cccc(O)c1 (single isomer, unassigned; (+)) [compound of formula (II), (+)-Z—NHCH2C(O)OH]",solubility in water,Solubility in water,low solubility in water
same,opioid receptor binding preference,mu opioid receptors,preferential binding to mu opioid receptors
same,overall adverse effects compared with placebo-treated group,[1]; higher dose,fewer overall adverse effects
same,"reduction of all other measures (first bowel movement, solid diet, ready for discharge, discharge)",[1]; higher dose versus placebo,≥ 24 h
same,reduction of time to first flatus,[1]; higher dose versus placebo,15 h
same,patients experiencing post-surgical vomiting,"[1]; higher dose, 23% in the placebo control group (P<0.03)",none
same,patients experiencing clinically relevant post-surgical nausea,"[1]; higher dose, 63% of the placebo control group (P=0.003)",Twenty seven
same,serious adverse side effects judged related to the compound,[1]; patients of the trial,No patients experienced serious adverse side effects
same,effect on beneficial analgesic effects of systemic narcotics,[1]; patients receiving systemic narcotics for post-surgical pain,did not reduce the beneficial analgesic effects
